Converted amounts (≈) assume the structure as drawn.
How the values were obtained:
Assay type in all cases: in vivo
narrowleaf waterplantain = assay: Petri dish test (Test 6); conditions: 336 h; seeds on filter paper, 25° C., 14 days; read-out: I80 (ppm)
Procedure, shortened: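 Narrowleaf waterplantain seeds placed on filter paper pre-treated with compound in acetone (solvent air-dried) in 9 cm Petri dishes with 10 ml water, grown at 25° C in light. Growth was scored after fourteen days as degree of damage against an untreated group.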

bulrush [1] = assay: Treatment of soil under submerged condition, pre-emergence (Test 4); conditions: 30 g ai/a granule, 30 days later
Procedure, shortened: (§1)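 Weeds were seeded or planted in submerged soil, with 2-3 leaf rice seedlings transplanted into the same pots. One day later, before weed emergence, a granule formulation of the test composition was applied. Weed damage and rice injury were scored 30 days after treatment.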

barnyardgrass [2] = assay: as above; conditions: 30 g ai/a granule, 30 days later
Procedure, shortened: as §1

Sagittaria pygmaea [3] = assay: as above; conditions: 30 g ai/a granule, 30 days later
Procedure, shortened: as §1

redroot pigweed = assay: Upland foliar application test (Test 3); conditions: 30 g ai/a, foliar spray at 2-3 leaves, 30th day
Procedure, shortened: (§2)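 Upland-soil pots seeded with weeds and crops (incl. cotton, large crabgrass, johnsongrass, common lambsquarters), grown in greenhouse to 2-3 leaf stage. Emulsion diluted with water sprayed on foliage at 5 l per are via ULV sprayer. Weed damage and crop injury scored 30 days after spraying.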

barnyardgrass [4] = assay: Upland foliar application test (Test 3); conditions: 30 g ai/a, foliar spray at 2-3 leaves, 30th day
Procedure, shortened: as §2

common lambsquarters = assay: Upland foliar application test (Test 3); conditions: 30 g ai/a, foliar spray at 2-3 leaves, 30th day
Procedure, shortened: as §2

foxtail meadow = assay: Upland foliar application test (Test 3); conditions: 30 g ai/a, foliar spray at 2-3 leaves, 30th day
Procedure, shortened: as §2

green foxtail = assay: Upland foliar application test (Test 3); conditions: 30 g ai/a, foliar spray at 2-3 leaves, 30th day
Procedure, shortened: as §2

johnsongrass = assay: Upland foliar application test (Test 3); conditions: 30 g ai/a, foliar spray at 2-3 leaves, 30th day
Procedure, shortened: as §2

large crabgrass = assay: Upland foliar application test (Test 3); conditions: 30 g ai/a, foliar spray at 2-3 leaves, 30th day
Procedure, shortened: as §2

rice [5] = assay: Treatment of soil under submerged condition, post-emergence (Test 5), injury; conditions: 30 g ai/a granule, 30 days later
Procedure, shortened: (§3)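 Scoring of weed emergence and rice injury took place 30 days after treatment. Treatment was a granule of the test composition, applied once barnyardgrass had two leaves, to submerged soil holding sown weeds and transplanted 2–3-leaf rice pairs grown under glass.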

peanut = assay: Upland foliar application test (Test 3), crop injury; conditions: 30 g ai/a, foliar spray at 2-3 leaves, 30th day
Procedure, shortened: as §2

soybean = assay: as above; conditions: 30 g ai/a, foliar spray at 2-3 leaves, 30th day
Procedure, shortened: as §2

cotton = assay: as above; conditions: 30 g ai/a, foliar spray at 2-3 leaves, 30th day
Procedure, shortened: as §2

rice [6] = assay: Treatment of soil under submerged condition, pre-emergence (Test 4), injury; conditions: 30 g ai/a granule, 30 days later
Procedure, shortened: as §1

bulrush [7] = assay: Treatment of soil under submerged condition, post-emergence (Test 5); conditions: 30 g ai/a granule, 30 days later
Procedure, shortened: as §3

barnyardgrass [8] = assay: as above; conditions: 30 g ai/a granule, post-emergence (barnyardgrass two-leaf stage), 30 days later
Procedure, shortened: as §3

Sagittaria pygmaea [9] = assay: as above; conditions: 30 g ai/a granule, 30 days later
Procedure, shortened: as §3

Compound | IC80 (narrowleaf waterplantain) | Herbicidal effects Bulrush (bulrush [1]) | Herbicidal effects Barnyardgrass (barnyardgrass [2]) | Herbicidal effects Sagittaria Pygmaea (Sagittaria pygmaea [3]) | Herbicidal effects Redroot pigweed (redroot pigweed) | Herbicidal effects Barnyardgrass (barnyardgrass [4]) | Herbicidal effects Common lambsquarters (common lambsquarters) | Herbicidal effects Foxtail meadow (foxtail meadow) | Herbicidal effects Green foxtail (green foxtail) | Herbicidal effects Johnsongrass (johnsongrass) | Herbicidal effects Large crabgrass (large crabgrass) | Injury Rice (rice [5]) | Injury Peanut (peanut) | Injury Soybean (soybean) | Injury Cotton (cotton) | Injury Rice (rice [6]) | Herbicidal effects Bulrush (bulrush [7]) | Herbicidal effects Barnyardgrass (barnyardgrass [8]) | Herbicidal effects Sagittaria Pygmaea (Sagittaria pygmaea [9])
COc1cc(OC)nc(Oc2ccccc2C=NOCC=C(C)Cl)n1 [compound 12] | 100 µg/mL (≈ 275 µM) | 4 (6-10 (Severe damages)) | 4 (6-10 (Severe damages)) | 4 (6-10 (Severe damages)) | 3 (11-40 (Medium damages)) | 4 (6-10 (Severe damages)) | 3 (11-40 (Medium damages)) | 4 (6-10 (Severe damages)) | 4 (6-10 (Severe damages)) | 5 (0-5 (Death)) | 4 (6-10 (Severe damages)) | 0 (91-100 (No damages)) | 0 (91-100 (No damages)) | 0 (91-100 (No damages)) | 0 (91-100 (No damages)) | 1 (71-90 (Slight damages)) | 5 (0-5 (Death)) | 5 (0-5 (Death)) | 3 (11-40 (Medium damages))
COc1cc(OC)nc(Oc2ccccc2C=NOCc2ccccc2Cl)n1 [compound 16] | 100 µg/mL (≈ 250 µM) | 3 (11-40 (Medium damages)) | 4 (6-10 (Severe damages)) | 4 (6-10 (Severe damages)) | 4 (6-10 (Severe damages)) | 3 (11-40 (Medium damages)) | 3 (11-40 (Medium damages)) | 3 (11-40 (Medium damages)) | 5 (0-5 (Death)) | 5 (0-5 (Death)) | 3 (11-40 (Medium damages)) | 0 (91-100 (No damages)) | 0 (91-100 (No damages)) | 0 (91-100 (No damages)) | 0 (91-100 (No damages)) | 0 (91-100 (No damages)) | 4 (6-10 (Severe damages)) | 4 (6-10 (Severe damages)) | 3 (11-40 (Medium damages))
COc1cc(OC)nc(Oc2ccccc2C=NOCc2ccc(Cl)c(Cl)c2)n1 [compound 18] | 67 µg/mL (≈ 154 µM) | 2 (41-70 (Small damages)) | 4 (6-10 (Severe damages)) | 4 (6-10 (Severe damages)) | 4 (6-10 (Severe damages)) | 4 (6-10 (Severe damages)) | 3 (11-40 (Medium damages)) | 4 (6-10 (Severe damages)) | 5 (0-5 (Death)) | 5 (0-5 (Death)) | 3 (11-40 (Medium damages)) | 0 (91-100 (No damages)) | 0 (91-100 (No damages)) | 0 (91-100 (No damages)) | 0 (91-100 (No damages)) | 0 (91-100 (No damages)) | 4 (6-10 (Severe damages)) | 3 (11-40 (Medium damages)) | 4 (6-10 (Severe damages))
COc1cc(OC)nc(Oc2ccccc2C=NOCc2ccc(C)cc2)n1 [compound 19] | 100 µg/mL (≈ 264 µM) | 4 (6-10 (Severe damages)) | 4 (6-10 (Severe damages)) | 4 (6-10 (Severe damages)) | 4 (6-10 (Severe damages)) | 3 (11-40 (Medium damages)) | 4 (6-10 (Severe damages)) | 4 (6-10 (Severe damages)) | 5 (0-5 (Death)) | 5 (0-5 (Death)) | 3 (11-40 (Medium damages)) | 0 (91-100 (No damages)) | 0 (91-100 (No damages)) | 0 (91-100 (No damages)) | 0 (91-100 (No damages)) | 0 (91-100 (No damages)) | 4 (6-10 (Severe damages)) | 4 (6-10 (Severe damages)) | 3 (11-40 (Medium damages))
COc1cc(OC)nc(Oc2ccccc2C=NOCc2cccc(C)c2)n1 [compound 20] | 100 µg/mL (≈ 264 µM) | 4 (6-10 (Severe damages)) | 5 (0-5 (Death)) | 4 (6-10 (Severe damages)) | 5 (0-5 (Death)) | 5 (0-5 (Death)) | 4 (6-10 (Severe damages)) | 5 (0-5 (Death)) | 5 (0-5 (Death)) | 5 (0-5 (Death)) | 5 (0-5 (Death)) | 0 (91-100 (No damages)) | 0 (91-100 (No damages)) | 0 (91-100 (No damages)) | 0 (91-100 (No damages)) | 0 (91-100 (No damages)) | 4 (6-10 (Severe damages)) | 5 (0-5 (Death)) | 4 (6-10 (Severe damages))
COc1cc(OC)nc(Oc2ccccc2C=NOC(C)c2ccccc2)n1 (centres unmarked) [compound 21] | 100 µg/mL (≈ 264 µM) | 3 (11-40 (Medium damages)) | 3 (11-40 (Medium damages)) | 3 (11-40 (Medium damages)) | 3 (11-40 (Medium damages)) | 3 (11-40 (Medium damages)) | 3 (11-40 (Medium damages)) | 3 (11-40 (Medium damages)) | 4 (6-10 (Severe damages)) | 5 (0-5 (Death)) | 4 (6-10 (Severe damages)) | 0 (91-100 (No damages)) | 0 (91-100 (No damages)) | 0 (91-100 (No damages)) | 0 (91-100 (No damages)) | 0 (91-100 (No damages)) | 3 (11-40 (Medium damages)) | 3 (11-40 (Medium damages)) | 3 (11-40 (Medium damages))
COc1cc(OC)nc(Oc2ccccc2C=NOCc2cccc3ccccc23)n1 [compound 22] | 100 µg/mL (≈ 241 µM) | 3 (11-40 (Medium damages)) | 3 (11-40 (Medium damages)) | 3 (11-40 (Medium damages)) | 5 (0-5 (Death)) | 5 (0-5 (Death)) | 4 (6-10 (Severe damages)) | 5 (0-5 (Death)) | 5 (0-5 (Death)) | 5 (0-5 (Death)) | 5 (0-5 (Death)) | 0 (91-100 (No damages)) | 0 (91-100 (No damages)) | 0 (91-100 (No damages)) | 0 (91-100 (No damages)) | 0 (91-100 (No damages)) | 4 (6-10 (Severe damages)) | 5 (0-5 (Death)) | 3 (11-40 (Medium damages))
COc1cc(OC)nc(Oc2ccccc2C=NOCCc2ccccc2)n1 [compound 23] | 100 µg/mL (≈ 264 µM) | 4 (6-10 (Severe damages)) | 5 (0-5 (Death)) | 5 (0-5 (Death)) | 3 (11-40 (Medium damages)) | 3 (11-40 (Medium damages)) | 3 (11-40 (Medium damages)) | 4 (6-10 (Severe damages)) | 4 (6-10 (Severe damages)) | 5 (0-5 (Death)) | 3 (11-40 (Medium damages)) | 0 (91-100 (No damages)) | 0 (91-100 (No damages)) | 0 (91-100 (No damages)) | 0 (91-100 (No damages)) | 0 (91-100 (No damages)) | 4 (6-10 (Severe damages)) | 5 (0-5 (Death)) | 5 (0-5 (Death))
